Source: patent US9458137B2, “Substituted indol-5-ol derivatives and their therapeutical applications” (NantBioScience, Inc., priority 2012, dated 2016)

tested on: abl kinase; test: abl kinase inhibition assay; assay type: biochemical

Row | SMILES | % Inhibition @1 μM Abl
1 | Cc1cc2c(F)c(Oc3nc(Nc4cc(C5CC5)[nH]n4)cc(N4CCNCC4)n3)ccc2[nH]1 [Example 11, N-(5-cyclopropyl-1H-pyrazol-3-yl)-2-((4-fluoro-2-methyl-1H-indol-5-yl)oxy)-6-(piperazin-1-yl)pyrimidin-4-amine] | 111%
2 | Cc1cc2c(F)c(Oc3nc(Nc4cc(C5CC5)[nH]n4)cc(N4CCN(CCO)CC4)n3)ccc2[nH]1 [Example 12] | 112%
3 | Cc1cc2c(F)c(Oc3nc(Nc4cc(C5CC5)[nH]n4)cc(N4CCOCC4)n3)ccc2[nH]1 [Example 13] | 112%
4 | CC(=O)N1CCN(c2cc(Nc3cc(C4CC4)[nH]n3)nc(Oc3ccc4[nH]c(C)cc4c3F)n2)CC1 [Example 18] | 107%
5 | Cc1cc2c(F)c(Oc3nc(Nc4cc(C5CC5)[nH]n4)cc(N4C[C@@H](C)N[C@@H](C)C4)n3)ccc2[nH]1 [Example 20] | 107%
6 | Cc1cc2c(F)c(Oc3nc(Nc4cc(C5CC5)[nH]n4)cc(N4CCN(S(C)(=O)=O)CC4)n3)ccc2[nH]1 [Example 23] | 108%
7 | CCN1CCN(c2cc(Nc3cc(C4CC4)[nH]n3)nc(Oc3ccc4[nH]c(C)cc4c3F)n2)CC1 [Example 31] | 115%
8 | Cc1cc2c(F)c(Oc3nc(Nc4cc(C5CC5)[nH]n4)cc(N4CCN(CC(F)(F)F)CC4)n3)ccc2[nH]1 [Example 38] | 108%
9 | CCC1CN(c2cc(Nc3cc(C4CC4)[nH]n3)nc(Oc3ccc4[nH]c(C)cc4c3F)n2)CCN1 (stereo not drawn) [Example 41] | 108%
10 | Cc1cc2c(F)c(Oc3nc(Nc4cc(C5CC5)[nH]n4)cc(N4CCN(CCN(C)C)CC4)n3)ccc2[nH]1 [Example 42] | 110%
11 | Cc1cc2c(F)c(Oc3nc(Nc4cc(C5CC5)[nH]n4)cc(N4CCNC(CO)C4)n3)ccc2[nH]1 (stereo not drawn) [Example 43] | 111%
12 | COCC1CCN(c2cc(Nc3cc(C4CC4)[nH]n3)nc(Oc3ccc4[nH]c(C)cc4c3F)n2)C1 (stereo not drawn) [Example 44] | 94%
13 | C/C=C/c1cc(Nc2cc(N3CCN(CCOC)CC3)nc(Oc3ccc4[nH]c(C)cc4c3F)n2)n[nH]1 [Example 54] | 108%
14 | C/C=C/c1cc(Nc2cc(N3CCN(S(C)(=O)=O)CC3)nc(Oc3ccc4[nH]c(C)cc4c3F)n2)n[nH]1 [Example 55] | 110%
15 | C/C=C/c1cc(Nc2cc(N3CCN(C(C)=O)CC3)nc(Oc3ccc4[nH]c(C)cc4c3F)n2)n[nH]1 [Example 56] | 111%
16 | C/C=C/c1cc(Nc2cc(N3CCC(N(CC)CC)C3)nc(Oc3ccc4[nH]c(C)cc4c3F)n2)n[nH]1 (stereo not drawn) [Example 62] | 111%
17 | C/C=C/c1cc(Nc2cc(N3CCNCC3)nc(Oc3ccc4[nH]c(C)cc4c3F)n2)n[nH]1 [Example 68] | 107%
18 | Cc1cc2c(F)c(Oc3nc(Nc4cc(C5CC5)[nH]n4)cc(N4CCNCC4)n3)cc(F)c2[nH]1 [Example 82] | 106%
19 | Cc1cc2c(F)c(Oc3nc(Nc4cc(C5CC5)[nH]n4)cc(N4CCN(CCO)CC4)n3)cc(F)c2[nH]1 [Example 83] | 110%
20 | C/C=C/c1cc(Nc2cc(N3CCN(C)CC3)nc(Oc3cc(F)c4[nH]c(C)cc4c3F)n2)n[nH]1 [Example 87] | 112%
21 | C/C=C/c1cc(Nc2cc(N3CCNCC3)nc(Oc3cc(F)c4[nH]c(C)cc4c3F)n2)n[nH]1 [Example 90] | 112%
22 | C/C=C/c1cc(Nc2cc(N3CCC(OC)C3)nc(Oc3cc(F)c4[nH]c(C)cc4c3F)n2)n[nH]1 (stereo not drawn) [Example 93] | 111%
23 | C/C=C/c1cc(Nc2cc(N3CCC(N(CC)CC)C3)nc(Oc3cc(F)c4[nH]c(C)cc4c3F)n2)n[nH]1 (stereo not drawn) [Example 94] | 111%
24 | CCN1CCN(c2cc(Nc3cc(C)[nH]n3)nc(Oc3cc(F)c4[nH]c(C)cc4c3F)n2)CC1 [Example 103] | 113%
25 | Cc1cc(Nc2cc(N3CCNCC3)nc(Oc3cc(F)c4[nH]c(C)cc4c3F)n2)n[nH]1 [Example 106] | 109%
26 | C/C=C/c1cc(Nc2cc(N3CCOCC3)nc(Oc3ccc4c(cc(C)n4C)c3F)n2)n[nH]1 [Example 121] | 116%
27 | Cc1cc2c(F)c(Oc3nc(Nc4cc(C5CC5)[nH]n4)cc(N4CCOCC4)n3)ccc2n1C [Example 123] | 114%

Results, then the compound that gave them:

Row | % Inhibition @1 μM Abl | SMILES
28 | 112% | Cc1cc2c(F)c(Oc3nc(Nc4cc(C5CC5)[nH]n4)cc(N4CCN(C)CC4)n3)ccc2[nH]1 [Example 10]
29 | 108% | Cc1cc2c(F)c(Oc3nc(Nc4cc(C5CC5)[nH]n4)cc(N4CC(O)C4)n3)ccc2[nH]1 [Example 15]
30 | 103% | COC1CCN(c2cc(Nc3cc(C4CC4)[nH]n3)nc(Oc3ccc4[nH]c(C)cc4c3F)n2)C1 (stereo not drawn) [Example 16]
31 | 108% | Cc1cc2c(F)c(Oc3nc(Nc4cc(C5CC5)[nH]n4)cc(N4CCC(N(C)C)C4)n3)ccc2[nH]1 (stereo not drawn) [Example 17]
32 | 108% | Cc1cc2c(F)c(Oc3nc(Nc4cc(C5CC5)[nH]n4)cc(N4CCNC(=O)C4)n3)ccc2[nH]1 [Example 19]
33 | 107% | Cc1cc2c(F)c(Oc3nc(Nc4cc(C5CC5)[nH]n4)cc(N4CCC(O)CC4)n3)ccc2[nH]1 [Example 21]
34 | 108% | Cc1cc2c(F)c(Oc3nc(Nc4cc(C5CC5)[nH]n4)cc(N4CCC(F)CC4)n3)ccc2[nH]1 [Example 22]
35 | 108% | Cc1cc2c(F)c(Oc3nc(Nc4cc(C5CC5)[nH]n4)cc(N4CCN(c5ccccn5)CC4)n3)ccc2[nH]1 [Example 25]
36 | 109% | Cc1cc2c(F)c(Oc3nc(Nc4cc(C5CC5)[nH]n4)cc(N4CCN(c5cccnc5)CC4)n3)ccc2[nH]1 [Example 26]
37 | 108% | Cc1cc2c(F)c(Oc3nc(Nc4cc(C5CC5)[nH]n4)cc(N4CCN(c5ccncc5)CC4)n3)ccc2[nH]1 [Example 27]
38 | 108% | COCCN1CCN(c2cc(Nc3cc(C4CC4)[nH]n3)nc(Oc3ccc4[nH]c(C)cc4c3F)n2)CC1 [Example 28]
39 | 110% | Cc1cc2c(F)c(Oc3nc(Nc4cc(C5CC5)[nH]n4)cc(N4CCOC(CN(C)C)C4)n3)ccc2[nH]1 (stereo not drawn) [Example 30]
40 | 110% | Cc1cc2c(F)c(Oc3nc(Nc4cc(C5CC5)[nH]n4)cc(N4CCOC(CN)C4)n3)ccc2[nH]1 (stereo not drawn) [Example 39]
41 | 107% | Cc1cc2c(F)c(Oc3nc(Nc4cc(C5CC5)[nH]n4)cc(N4CCN(CCF)CC4)n3)ccc2[nH]1 [Example 45]
42 | 109% | C/C=C/c1cc(Nc2cc(N3CCN(C)CC3)nc(Oc3ccc4[nH]c(C)cc4c3F)n2)n[nH]1 [Example 53]
43 | 111% | C/C=C/c1cc(Nc2cc(N3CCS(=O)(=O)CC3)nc(Oc3ccc4[nH]c(C)cc4c3F)n2)n[nH]1 [Example 57]
44 | 112% | C/C=C/c1cc(Nc2cc(N3CCC(OC)CC3)nc(Oc3ccc4[nH]c(C)cc4c3F)n2)n[nH]1 [Example 58]
45 | 112% | C/C=C/c1cc(Nc2cc(N3CCC(O)CC3)nc(Oc3ccc4[nH]c(C)cc4c3F)n2)n[nH]1 [Example 59]

Row | % Inhibition @1 μM Abl | SMILES
46 | 111% | C/C=C/c1cc(Nc2cc(N3CCC(OC)C3)nc(Oc3ccc4[nH]c(C)cc4c3F)n2)n[nH]1 (stereo not drawn) [Example 60]
47 | 112% | C/C=C/c1cc(Nc2cc(N3CCC(O)C3)nc(Oc3ccc4[nH]c(C)cc4c3F)n2)n[nH]1 (stereo not drawn) [Example 61]
48 | 112% | C/C=C/c1cc(Nc2cc(N3CCOCC3)nc(Oc3ccc4[nH]c(C)cc4c3F)n2)n[nH]1 [Example 67]
49 | 111% | C/C=C/c1cc(Nc2cc(N3CCN(CCF)CC3)nc(Oc3ccc4[nH]c(C)cc4c3F)n2)n[nH]1 [Example 74]
50 | 110% | Cc1cc2c(F)c(Oc3nc(Nc4cc(C5CC5)[nH]n4)cc(N4CCN(C)CC4)n3)cc(F)c2[nH]1 [Example 81]
51 | 103% | Cc1cc2c(F)c(Oc3nc(Nc4cc(C5CC5)[nH]n4)cc(N4CCOCC4)n3)cc(F)c2[nH]1 [Example 84]
52 | 113% | C/C=C/c1cc(Nc2cc(N3CCN(CCO)CC3)nc(Oc3cc(F)c4[nH]c(C)cc4c3F)n2)n[nH]1 [Example 88]
53 | 112% | C/C=C/c1cc(Nc2cc(N3CCOCC3)nc(Oc3cc(F)c4[nH]c(C)cc4c3F)n2)n[nH]1 [Example 89]
54 | 111% | C/C=C/c1cc(Nc2cc(N3CCC(O)C3)nc(Oc3cc(F)c4[nH]c(C)cc4c3F)n2)n[nH]1 (stereo not drawn) [Example 92]
55 | 110% | C/C=C/c1cc(Nc2cc(N3CCC(O)CC3)nc(Oc3cc(F)c4[nH]c(C)cc4c3F)n2)n[nH]1 [Example 95]
56 | 110% | C/C=C/c1cc(Nc2cc(N3CCC(OC)CC3)nc(Oc3cc(F)c4[nH]c(C)cc4c3F)n2)n[nH]1 [Example 96]
57 | 111% | C/C=C/c1cc(Nc2cc(N3CCN(S(C)(=O)=O)CC3)nc(Oc3cc(F)c4[nH]c(C)cc4c3F)n2)n[nH]1 [Example 98]
58 | 113% | C/C=C/c1cc(Nc2cc(N3CCN(CC)CC3)nc(Oc3cc(F)c4[nH]c(C)cc4c3F)n2)n[nH]1 [Example 99]
59 | 112% | Cc1cc(Nc2cc(N3CCN(CCO)CC3)nc(Oc3cc(F)c4[nH]c(C)cc4c3F)n2)n[nH]1 [Example 105]
60 | 111% | Cc1cc(Nc2cc(N3CCOCC3)nc(Oc3cc(F)c4[nH]c(C)cc4c3F)n2)n[nH]1 [Example 107]
61 | 113% | C/C=C/c1cc(Nc2cc(N3CCN(C)CC3)nc(Oc3ccc4[nH]c(C)cc4c3Cl)n2)n[nH]1 [Example 112]
62 | 115% | C/C=C/c1cc(Nc2cc(N3CCN(C)CC3)nc(Oc3ccc4c(cc(C)n4C)c3F)n2)n[nH]1 [Example 120]
63 | 109% | Cc1cc2c(F)c(Oc3nc(Nc4cc(C5CC5)[nH]n4)cc(N4CCN(C)CC4)n3)ccc2n1C [Example 122]
